Results reported in article PMC10313368 (The Journal of Clinical Investigation, 2023).
Read-outs that look alike come from different tables or passages of the source.

Key:
[1] = system: HIF transcriptional activity; conditions: cell-based reporter assay; read-out: IC50, inhibition of HIF transcriptional activity; cited from earlier work
[2] = Mouse pharmacokinetics in retina after intraocular injection (LC-MS/MS); format: in vivo; conditions: for AUC % Extrapolated / AUClast / Cmax / half-life / Tmax: retina; for half-life / Tmax: C57BL/6, mouse, topical or ocular; for half-life: 280 ng
Procedure: intraocular injection. Mice (at least 3 mice per time point) were euthanized at 1, 3, 7, or 14 days after injection. For the 280-ng dose, a 10-day time point was added. […]
retina by LC-MS/MS as previously described (5) with the following modifications. Retina tissue samples were homogenized in 200 μL of 1× PBS (pH 7.4) before extraction. The standard curve and quality control samples were prepared in 1× PBS as a surrogate matrix. Retina tissue samples were then quantitated in µM as: nominal concentration (µM) × initial dilution ([tissue weight (mg) + volume of solvent (μl)]/ tissue weight (mg)). For all samples <10 nM, the value was reported as below the limits of detection. If at least on samples was >10 nM and one was <10 nM, then one half that value (5 nM) was imputed to calculate the concentration for that specimen and utilized in the average and standard deviation calculations.
Pharmacokinetic parameters were calculated from mean concentration-time data using noncompartmental methods in Phoenix WinNonlin version 8.3 (Certara, Princeton, NJ, USA). The Cmax and time to Cmax (Tmax) were the observed values. The AUClast was calculated using the log-linear trapezoidal method to the last quantifiable time point. The λz was determined from at least 3 points on the slope of the terminal phase of the concentration-time profile using a 1/y2 weighting factor. The T1/2 was determined by dividing 0.693 by λz. T1/2 was not reported if the correlation coefficient (r2) for λz was less than 0.9.
Bioanalytical method for mouse pharmacokinetics. Retina tissue samples were homogenized in 200 μL of 1× PBS (pH 7.4) before extraction. The standard curve and quality control samples were prepared in 1× PBS as a surrogate matrix for all matrices. Tissue homogenate or PBS (25 μL) was […]
respectively. Dwell time was 150 milliseconds. […]
constructed from the peak area ratio of the analyte to the peak area of its internal standard (EXP-3179) using the least-squares quadratic regression analysis with 1/x2 weight over the range of 10-2,110 nM with dilutions of up to 1:10 (v/v). […]

[3] = target: HIF-1α (Homo sapiens, UniProt Q16665); assay: Immunoblot of HIF-1α accumulation in MIO-M1 cells cultured in hypoxia; format: cell-based; set-up: endogenous in cells; host or cells: MIO-M1
Chain of HIF-1α (Q16665 whole entry): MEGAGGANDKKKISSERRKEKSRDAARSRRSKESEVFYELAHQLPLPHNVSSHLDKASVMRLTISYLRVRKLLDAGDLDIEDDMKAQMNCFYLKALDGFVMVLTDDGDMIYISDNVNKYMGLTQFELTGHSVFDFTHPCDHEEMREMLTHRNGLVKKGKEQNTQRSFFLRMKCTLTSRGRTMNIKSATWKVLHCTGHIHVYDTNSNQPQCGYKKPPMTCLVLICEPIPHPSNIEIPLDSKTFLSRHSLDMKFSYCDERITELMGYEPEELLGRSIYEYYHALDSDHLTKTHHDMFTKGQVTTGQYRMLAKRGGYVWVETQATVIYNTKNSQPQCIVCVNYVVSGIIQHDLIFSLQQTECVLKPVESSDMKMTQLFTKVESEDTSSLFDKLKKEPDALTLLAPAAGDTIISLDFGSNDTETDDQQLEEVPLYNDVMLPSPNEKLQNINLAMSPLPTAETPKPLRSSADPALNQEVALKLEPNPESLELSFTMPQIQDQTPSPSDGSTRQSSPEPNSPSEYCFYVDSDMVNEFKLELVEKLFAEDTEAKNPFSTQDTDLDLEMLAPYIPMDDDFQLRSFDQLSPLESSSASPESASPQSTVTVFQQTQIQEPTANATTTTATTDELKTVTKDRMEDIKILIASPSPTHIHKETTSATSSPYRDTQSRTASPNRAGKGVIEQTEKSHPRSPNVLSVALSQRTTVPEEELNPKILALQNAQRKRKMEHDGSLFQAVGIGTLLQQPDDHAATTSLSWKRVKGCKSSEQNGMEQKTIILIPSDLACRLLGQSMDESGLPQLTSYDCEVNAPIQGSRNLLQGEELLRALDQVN
Procedure: MIO-M1, HUVECs, and ARPE19 cells were cultured in DMEM with 10% (vol/vol) FBS (Quality Biological) and 1% penicillin/streptomycin (Cellgro). A hypoxic chamber (Coy Laboratory Product Inc.; Two Glove Model) with 5% CO2, 94% N2, and 1% O2 gas concentration at 37°C was used to culture hypoxic cells. The control cells were cultured in an incubator maintained at 37°C, with 21% O2 and 5% CO2. […] Aflibercept was obtained from the Johns Hopkins University Pharmacy.
Immunoblot assays. Cells, neurosensory retina, and D120 retinal organoid lysates were subjected
to 4–15% gradient SDS/PAGE (Invitrogen). Immunoblot (Western blot or WB) assays were
performed as previously described (1). […]

Brc1ccc2c(-c3csc(-c4c[nH]c5c(Br)cccc45)n3)c[nH]c2c1 [32-134D, 4-(6-bromo-1H-indol-3-yl)-2-(7-bromo-1H-indol-3-yl)thiazole]
IC50 [1]: < 4 µM
AUC % Extrapolated ([2]; 70 ng eyeball): 21.1%
AUClast ([2]; 70 ng eyeball): 72.3 nmol·days/g
Cmax ([2]; 70 ng eyeball): 19.1 nmol/g
AUC % Extrapolated ([2]; 280 ng eyeball): 2.2%
AUClast ([2]; 280 ng eyeball): 147 nmol·days/g
Cmax ([2]; 280 ng eyeball): 18 nmol/g
half-life ([2]; 280 ng eyeball, read-out: T1/2 (converted)): 42.2 h
half-life ([2]; single 280 ng intraocular injection, read-out: t1/2 in retina (converted)): 43.2 h
Tmax ([2]; 70 ng eyeball): 24 h
Tmax ([2]; 280 ng eyeball): 24 h
Cmax in neurosensory retina ([2]; single 70 ng intraocular injection): 19.1 nmol/g
AUClast in retina ([2]; single 70 ng intraocular injection, over 14 days): 72.3 nmol·days/g
Cmax in neurosensory retina ([2]; single 280 ng intraocular injection): 18 nmol/g
AUClast in retina ([2]; single 280 ng intraocular injection, through 14 days): 147 nmol·days/g
IC50 as used for time above IC50 ([2]; threshold in the pharmacokinetic calculation): 3.51 nmol/g
HIF-1α protein accumulation in response to hypoxia ([3]; MIO-M1, 1 μM 32-134D, 1% O2 4 hours): decreased
persistence of effect on HIF-1α accumulation after treatment ([3]; MIO-M1, 10 μM, hypoxia 1 to 24 hours): up to 16 hours
IC50 ([3]; MIO-M1 cells cultured in hypoxia, read-out: IC50, HIF-1α protein accumulation (quantitation of immunoblots)): 3.5 µM
